In ChEMBL document CHEMBL3045814, “Antifungal activity of Hinokitiol-related compounds on wood-rotting fungi and their insecticidal activities” (2000):
≈ marks a conversion by molar mass, not a printed value. Calls of active or inactive are those of the source. The calls are words filed in the database; no cut-off is given here.

Tests used:
Type in all cases: functional
Coptotermes formosanus [1] = assay: Insecticidal activity against Coptotermes formosanus assessed as mortality after 24 to 48 hr
Tyrophagus putrescentiae [2] = assay: Insecticidal activity against Tyrophagus putrescentiae assessed as mortality after 24 hr by clip method
Trametes coccinea = assay: Antifungal activity against Pycnoporus coccineus IFO-4924 assessed as growth inhibition after 7 days by agar dilution method; conditions: for MIC: IFO-4924, 168 h
Schizophyllum commune = assay: Antifungal activity against Schizophyllum commune IFO-4928 assessed as growth inhibition after 7 days by agar dilution method; conditions: for MIC: IFO-4928, 168 h
Trametes versicolor = assay: Antifungal activity against Trametes versicolor IFO-4940 assessed as growth inhibition after 7 days by agar dilution method; conditions: for MIC: IFO-4940, 168 h
Fomitopsis dickinsii = assay: Antifungal activity against Daedalea dickinsii IFO-4979 assessed as growth inhibition after 7 days by agar dilution method; conditions: for MIC: IFO-4979, 168 h
Lenzites betulinus = assay: Antifungal activity against Lenzites betulinus IFO-4964 assessed as growth inhibition after 7 days by agar dilution method; conditions: for MIC: IFO-4964, 168 h
Tyrophagus putrescentiae [3] = assay: Insecticidal activity against Tyrophagus putrescentiae assessed as mortality at 0.2 g/m2 after 24 hr by clip method relative to control
Coptotermes formosanus [4] = assay: Insecticidal activity against Coptotermes formosanus assessed as mortality at 0.01 g/m2 after 48 hr relative to control
Coptotermes formosanus [5] = assay: Insecticidal activity against Coptotermes formosanus assessed as mortality at 0.2 g/m2 after 24 hr relative to control
Coptotermes formosanus [6] = assay: Insecticidal activity against Coptotermes formosanus assessed as mortality at 0.01 g/m2 after 24 hr relative to control
Tyrophagus putrescentiae [7] = assay: Insecticidal activity against Tyrophagus putrescentiae assessed as mortality at 0.05 g/m2 after 24 hr by clip method relative to control
Coptotermes formosanus [8] = assay: Insecticidal activity against Coptotermes formosanus assessed as mortality at 0.1 g/m2 after 48 hr relative to control
Coptotermes formosanus [9] = assay: Insecticidal activity against Coptotermes formosanus assessed as mortality at 0.02 g/m2 after 24 hr relative to control
Coptotermes formosanus [10] = assay: Insecticidal activity against Coptotermes formosanus assessed as mortality at 0.02 g/m2 after 48 hr relative to control
Tyrophagus putrescentiae [11] = assay: Insecticidal activity against Tyrophagus putrescentiae assessed as mortality at 1 g/m2 after 24 hr by clip method relative to control
Tyrophagus putrescentiae [12] = assay: Insecticidal activity against Tyrophagus putrescentiae assessed as mortality at 0.01 g/m2 after 24 hr by clip method relative to control
Coptotermes formosanus [13] = assay: Insecticidal activity against Coptotermes formosanus assessed as mortality at 0.05 g/m2 after 24 hr relative to control
Tyrophagus putrescentiae [14] = assay: Insecticidal activity against Tyrophagus putrescentiae assessed as mortality at 0.02 g/m2 after 24 hr by clip method relative to control
Tyrophagus putrescentiae [15] = assay: Insecticidal activity against Tyrophagus putrescentiae assessed as mortality at 0.5 g/m2 after 24 hr by clip method relative to control
Coptotermes formosanus [16] = assay: Insecticidal activity against Coptotermes formosanus assessed as mortality at 1 g/m2 after 48 hr relative to control
Coptotermes formosanus [17] = assay: Insecticidal activity against Coptotermes formosanus assessed as mortality at 0.1 g/m2 after 24 hr relative to control
Coptotermes formosanus [18] = assay: Insecticidal activity against Coptotermes formosanus assessed as mortality at 1 g/m2 after 24 hr relative to control
Tyrophagus putrescentiae [19] = assay: Insecticidal activity against Tyrophagus putrescentiae assessed as mortality at 0.1 g/m2 after 24 hr by clip method relative to control
Coptotermes formosanus [20] = assay: Insecticidal activity against Coptotermes formosanus assessed as mortality at 0.2 g/m2 after 48 hr relative to control
Coptotermes formosanus [21] = assay: Insecticidal activity against Coptotermes formosanus assessed as mortality at 0.05 g/m2 after 48 hr relative to control
Coptotermes formosanus [22] = assay: Insecticidal activity against Coptotermes formosanus assessed as mortality at 0.00050 g/m2 after 48 hr relative to control
Coptotermes formosanus [23] = assay: Insecticidal activity against Coptotermes formosanus assessed as mortality at 0.00001 g/m2 after 48 hr relative to control
Coptotermes formosanus [24] = assay: Insecticidal activity against Coptotermes formosanus assessed as mortality at 0.00001 g/m2 after 24 hr relative to control
Coptotermes formosanus [25] = assay: Insecticidal activity against Coptotermes formosanus assessed as mortality at 0.00025 g/m2 after 48 hr relative to control
Coptotermes formosanus [26] = assay: Insecticidal activity against Coptotermes formosanus assessed as mortality at 0.00010 g/m2 after 24 hr relative to control
Coptotermes formosanus [27] = assay: Insecticidal activity against Coptotermes formosanus assessed as mortality at 0.00005 g/m2 after 48 hr relative to control
Coptotermes formosanus [28] = assay: Insecticidal activity against Coptotermes formosanus assessed as mortality at 0.00010 g/m2 after 48 hr relative to control
Coptotermes formosanus [29] = assay: Insecticidal activity against Coptotermes formosanus assessed as mortality at 0.00005 g/m2 after 24 hr relative to control
Coptotermes formosanus [30] = assay: Insecticidal activity against Coptotermes formosanus assessed as mortality at 0.00025 g/m2 after 24 hr relative to control
Coptotermes formosanus [31] = assay: Insecticidal activity against Coptotermes formosanus assessed as mortality at 0.00050 g/m2 after 24 hr relative to control

| SMILES | MIC (Trametes coccinea) [µg/mL] | MIC (Schizophyllum commune) [µg/mL] | MIC (Trametes versicolor) [µg/mL] | MIC (Fomitopsis dickinsii) [µg/mL] | MIC (Lenzites betulinus) [µg/mL] | LC50 (Coptotermes formosanus [1]) [g/m2] | mortality (Tyrophagus putrescentiae [3]) [%] | mortality (Coptotermes formosanus [4]) [%] | mortality (Coptotermes formosanus [5]) [%] | mortality (Coptotermes formosanus [6]) [%] | mortality (Tyrophagus putrescentiae [7]) [%] | mortality (Coptotermes formosanus [8]) [%] | LC50 (Tyrophagus putrescentiae [2]) [g/m2] | mortality (Coptotermes formosanus [9]) [%] | mortality (Coptotermes formosanus [10]) [%] | mortality (Tyrophagus putrescentiae [11]) [%] | mortality (Tyrophagus putrescentiae [12]) [%] | mortality (Tyrophagus putrescentiae [14]) [%] | mortality (Tyrophagus putrescentiae [15]) [%] | mortality (Tyrophagus putrescentiae [19]) [%] | further results |
| --- | --- | --- | --- | --- | --- | --- | --- | --- | --- | --- | --- | --- | --- | --- | --- | --- | --- | --- | --- | --- | --- |
| CC(=O)Oc1cc(C(C)C)cccc1=O | – | – | – | – | – | – | – | – | – | – | – | – | – | – | – | – | – | – | – | – | Activity (Coptotermes formosanus [1]): inactive; Activity (Tyrophagus putrescentiae [2]): inactive; growth inhibition (GI) (Trametes coccinea): inactive; growth inhibition (GI) (Schizophyllum commune): inactive; growth inhibition (GI) (Trametes versicolor): inactive; growth inhibition (GI) (Fomitopsis dickinsii): inactive; growth inhibition (GI) (Lenzites betulinus): inactive |
| C[C@@H]1[C@H](O)[C@@H](C)/C=C/C=C/C=C/C=C/C=C/C=C/C=C/[C@H](O[C@@H]2O[C@H](C)[C@@H](O)[C@H](N)[C@@H]2O)C[C@@H]2O[C@](O)(C[C@@H](O)C[C@@H](O)[C@H](O)CC[C@@H](O)C[C@@H](O)CC(=O)O[C@H]1C)C[C@H](O)[C@H]2C(=O)O [AMPHOTERICIN B] | 0.78 (≈ 0.844 µM) | 0.39 (≈ 0.422 µM) | 0.39 (≈ 0.422 µM) | 0.39 (≈ 0.422 µM) | 0.39 (≈ 0.422 µM) | – | – | – | – | – | – | – | – | – | – | – | – | – | – | – | – |
| C=C(C)c1cccc(=O)c(O)c1 [BETA-DOLABRIN] | 25 (≈ 154 µM) | 12.5 (≈ 77.1 µM) | 6.25 (≈ 38.5 µM) | 0.2 (≈ 1.23 µM) | 12.5 (≈ 77.1 µM) | 0.05 | 100 | 0 | 100 | 0 | 91 | 95 | 0.02 | 0 | 0 | 100 | 0 | 31 | 100 | 90 | mortality (Coptotermes formosanus [13]): 0%; mortality (Coptotermes formosanus [16]): 100%; mortality (Coptotermes formosanus [17]): 40%; mortality (Coptotermes formosanus [18]): 100%; mortality (Coptotermes formosanus [20]): 100%; mortality (Coptotermes formosanus [21]): 11% |
| CCOP(=S)(OCC)Oc1nc(Cl)c(Cl)cc1Cl [CHLORPYRIFOS] | – | – | – | – | – | 0.00016 | – | – | – | – | – | – | – | – | – | – | – | – | – | – | mortality (Coptotermes formosanus [22]): 100%; mortality (Coptotermes formosanus [23]): 0%; mortality (Coptotermes formosanus [24]): 0%; mortality (Coptotermes formosanus [25]): 100%; mortality (Coptotermes formosanus [26]): 25%; mortality (Coptotermes formosanus [27]): 40%; mortality (Coptotermes formosanus [28]): 75%; mortality (Coptotermes formosanus [29]): 10%; mortality (Coptotermes formosanus [30]): 60%; mortality (Coptotermes formosanus [31]): 100% |
| CCN(CC)C(=O)c1cccc(C)c1 [DIETHYLTOLUAMIDE] | – | – | – | – | – | – | 4.5 | – | – | – | 0 | – | 0.79 | – | – | 67.1 | 0 | 0 | 18.9 | 0 | – |
| CC(C)c1ccc(O)c(=O)cc1 [GAMMA-THUJAPLICIN] | 25 (≈ 152 µM) | 12.5 (≈ 76.1 µM) | 6.25 (≈ 38.1 µM) | 0.2 (≈ 1.22 µM) | 12.5 (≈ 76.1 µM) | 0.05 | 100 | 5 | 100 | 0 | 66 | 100 | 0.02 | 0 | 11 | 100 | 0 | 51 | 100 | 84 | mortality (Coptotermes formosanus [13]): 10%; mortality (Coptotermes formosanus [16]): 100%; mortality (Coptotermes formosanus [17]): 20%; mortality (Coptotermes formosanus [18]): 100%; mortality (Coptotermes formosanus [20]): 100%; mortality (Coptotermes formosanus [21]): 32% |
| CC(C)c1cccc(=O)c(O)c1 [HINOKITIOL] | 12.5 (≈ 76.1 µM) | 12.5 (≈ 76.1 µM) | 12.5 (≈ 76.1 µM) | 0.2 (≈ 1.22 µM) | 12.5 (≈ 76.1 µM) | 0.07 | 33.6 | 0 | 100 | 0 | 0 | 100 | 0.246 | 10 | 20 | 100 | 0 | 0 | 91.3 | 11.9 | mortality (Coptotermes formosanus [13]): 40%; mortality (Coptotermes formosanus [16]): 100%; mortality (Coptotermes formosanus [17]): 50%; mortality (Coptotermes formosanus [18]): 100%; mortality (Coptotermes formosanus [20]): 100%; mortality (Coptotermes formosanus [21]): 50% |
